Experimental data as given in patent publication US7642283B2, “Mitochrondrial permeability transition pore affinity labels and modulators” (Hoffmann-La Roche Inc., priority 2003, dated 2010).

Key:
[1] = test system: mitochondrial respiration; assay: Mitochondrial respiration (oxygen consumption); assay type: biochemical; conditions: at concentrations completely blocking MPTP
Description: Isolated liver mitochondria (˜0.5 mg protein ml^−1) were incubated in a batch mode in the presence of 20 nM [^3H]TPP ([^3H]Tetraphenylphosphonium ([^3H]TPP, 24-29 Ci/mmol) from Amersham Biosciences, Switzerland) for 15 min at 25° C. Aliquots (100 μl) of the mixture were then distributed into 96-well plates containing 100 μl of the test compound and the incubation prolonged for 15 min at 25° C. Samples were then filtered through 0.3% (v/v) polyethyleneimmine-treated GF/B glass fiber filters using a 96-channel cell harvester and the filters washed twice with 1 ml of buffer. Fifty μl of MICROSCINT 40 (Packard) were then added to each well, before counting for radioactivity in a TopCount scintillation counter (Packard). Non-specific uptake was determined in the presence of 1 mM unlabeled TPP or 1 μM carbonylcianide-p-trifluoromethoxyphenyl hydrazone (FCCP). Mitochondrial oxygen consumption was measured polarographically at 25° C. using a Clark-type electrode.
Compounds found to inhibit MPTP where then counter-screened using uptake of the potentiometric probe [^3H]-TPP (Hoek, J. B., Nicholls, D. G. & Williamson, J. R. (1980) J. Biol. Chem. 255, 1458-1564) for determining in a semi-quantitative, but rapid way whether they interfered with mitochondrial respiration (e.g. protonophores). […]

MPTP [2] = target: T1, MPTP (Rattus norvegicus, UniProt Q9Z2L0); assay: Ca2+-induced swelling in rat brain mitochondria; assay type: biochemical; conditions: 80 μM CaCl2; potency in the range of liver mitochondria
T1 construct: other: n=2; glutamate/malate; other: glutamate/malate; 20 min; mean±SEM; unit not given; other: 300 nM; relieved by 50 μM Ub5
Description: The effect of Spiro[cyclopentane-1,5′-[5H]dibenzo[a,d]cyclohepten]-2-one,10′,11′-dihydro-3-methylene- at inhibiting MPTP was also investigated in mitochondria isolated from rat forebrain. […] Due to the difficulties mentioned above, the effect of Spiro[cyclopentane-1,5′-[5H]dibenzo[a,d]cyclohepten]-2-one,10′,11′-dihydro-3-methylene- on MPTP in brain mitochondria was more accurately investigated by subjecting mitochondria isolated from rat forebrain to a series of Ca^2+ pulses (5 μM, ˜150 nmol mg protein^−1) and by monitoring extramitochondrial Ca^2+ or using fluororescent probes.

MPTP [3] = target: T1, MPTP; assay: Ca2+-induced depolarisation (membrane potential, Rhodamine-123) of rat brain mitochondria; assay type: biochemical
Description: (B) Ca^2+-induced depolarisation of rat brain mitochondria. The medium used was as in the legend to FIG. 4, except that 0.5 μM Rhodamine-123 was added instead of Calcium Green-5N, and MPTP was induced by addition of 20 μM Ca^2+. Trace a, control (Ca^2+ alone), b, 300 nM Spiro[cyclopentane-1,5′-[5H]dibenzo[a,d]cyclohepten]-2-one,10′,11′-dihydro-3-methylene-, c, 300 nM Spiro[cyclopentane-1,5′-[5H]dibenzo[a,d]cyclohepten]-2-one,10′,11′-dihydro-3-methylene- and 50 μM Ub5.
The effect of Spiro[cyclopentane-1,5′-[5H]dibenzo[a,d]cyclohepten]-2-one,10′,11′-dihydro-3-methylene- at inhibiting MPTP was also investigated in mitochondria isolated from rat forebrain. […] Due to the difficulties mentioned above, the effect of Spiro[cyclopentane-1,5′-[5H]dibenzo[a,d]cyclohepten]-2-one,10′,11′-dihydro-3-methylene- on MPTP in brain mitochondria was more accurately investigated by subjecting mitochondria isolated from rat forebrain to a series of Ca^2+ pulses (5 μM, ˜150 nmol mg protein^−1) and by monitoring extramitochondrial Ca^2+ or using fluororescent probes. […] Virtually identical results were obtained from experiments where Δψm was monitored after a series of Ca^2+ additions (5 μM each). Each Ca^2+ additions caused a reversible decreases in Δψm, until MPTP opening completely collapsed Δψm and no further fluorescence increase could observed after addition of the protonophore FCCP.

VDAC1 = target: T2, VDAC1 (Rattus norvegicus, UniProt Q9Z2L0); assay: Affinity labeling of rat mitochondria with the tritiated spiro compound, SDS-PAGE and fluorography; assay type: binding; conditions: rat brain and liver mitochondria; 10 nM radiolabel; increasing concentration
T2 construct: from tissue; host or cells: Percoll-purified rat brain and liver mitochondria
Description: FIG. 6: Affinity-labeling of isolated rat brain (A) and liver (B) mitochondria. Mitochondrial preparations were incubated in the presence of 10 nM Spiro[cyclopentane-1,5′-[5H]dibenzo[a,d]cyclohepten]-2-one,10′,11′-t2-10′,11′-dihydro-3-methylene- for 15 min at 25° C. in presence or absence of various concentrations of Spiro[cyclopentane-1,5′-[5H]dibenzo[a,d]cyclohepten]-2-one,10′,11′-dihydro-3-methylene-(unlabeled). Samples were submitted to SDS-PAGE (see Experimental Procedures section for details) and fluorography. The fluorograms of the gels are shown. The molecular mass scale (kDa) is shown in the ordinate.
(§1) FIG. 8: (A) Effect of monobromobimano (MBBM) and phenylarsino oxide (PhAO) on VDAC1 labeling by Spiro[cyclopentane-1,5′-[5H]dibenzo[a,d]cyclohepten]-2-one,10′,11′-t2-10′,11′-dihydro-3-methylene- in rat brain mitochondria. Experimental conditions were as in the legend to FIG. 5. (B) Effect of various MPTP inhibitors, atractyloside (ATR) and DIDS on VDAC1 labeling by Spiro[cyclopentane-1,5′-[5H]dibenzo[a,d]cyclohepten]-2-one,10′,11′-t2-10′,11′-dihydro-3-methylene- in rat brain mitochondria. Mitochondria were exposed to DIDS for 5 min before rinsing for removal of the free agent and labeling with Spiro[cyclopentane-1,5′-[5H]dibenzo[a,d]cyclohepten]-2-one,10′,11′-t2-10′,11′-dihydro-3-methylene.
Percoll purified mitochondria (˜30 μg protein per sample) were incubated in the presence of 10 nM Spiro[cyclopentane-1,5′-[5H]dibenzo[a,d]cyclohepten]-2-one,10′,11′-t2-10′,11′-dihydro-3-methylene- in a final volume of 200 μl. After incubation for 15 min at 25° C., samples were centrifuged at 25000×g and the mitochondrial pellet rinsed twice with buffer. Samples were then solubilized in sample buffer containing β-mercaptoethanol (1 h at 37° C.) and subjected to SDS-polyacrylamide gel-electrophoresis (SDS-PAGE) on Tris-glycine Novex pre-cast mini-gels (12% monomer concentration, Invitrogen BV, The Netherlands). After Coomassie Blue staining, gels were processed for fluorography by soaking in Amplify™ (Amersham Biosciences), drying and exposing to X-ray BioMax MS film with BioMax MS intensifying screen (Kodak) at −80° C. for the appropriate time.
as §1, with “Effect” for “FIG. 8: (A) Effect”, “monobromobimano” for “monobromobimano (MBBM)”, “oxide” for “oxide (PhAO)”, “Example 12 (FIG. 8A).” for “the legend to FIG. 5. (B)”, “Spiro[cyclopentane-1,5′-[5H]dibenzo[a,d]cyclohepten]-2-one,10′,11′-t2-10′,11′-dihydro-3-methylene (FIG. 8B).” for “Spiro[cyclopentane-1,5′-[5H]dibenzo[a,d]cyclohepten]-2-one,10′,11′-t2-10′,11′-dihydro-3-methylene.”

T1 sequence (Q9Z2L0 2-283): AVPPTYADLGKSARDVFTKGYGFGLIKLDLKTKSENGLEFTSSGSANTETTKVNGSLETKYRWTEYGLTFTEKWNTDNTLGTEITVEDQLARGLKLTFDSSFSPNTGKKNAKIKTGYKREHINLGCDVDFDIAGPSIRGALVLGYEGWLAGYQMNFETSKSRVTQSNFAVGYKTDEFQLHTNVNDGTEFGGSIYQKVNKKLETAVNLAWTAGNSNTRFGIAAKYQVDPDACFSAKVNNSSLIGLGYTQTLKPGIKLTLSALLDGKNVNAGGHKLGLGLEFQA
T2 sequence (Q9Z2L0 whole entry): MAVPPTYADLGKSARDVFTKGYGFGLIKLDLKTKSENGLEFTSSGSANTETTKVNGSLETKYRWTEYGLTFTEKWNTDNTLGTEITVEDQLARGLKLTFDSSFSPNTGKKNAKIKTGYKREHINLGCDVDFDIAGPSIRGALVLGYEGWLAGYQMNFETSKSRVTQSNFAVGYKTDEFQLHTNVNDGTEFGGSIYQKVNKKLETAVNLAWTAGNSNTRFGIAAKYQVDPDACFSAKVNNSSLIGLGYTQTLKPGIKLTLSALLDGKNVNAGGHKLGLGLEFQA

Compound: C=C1CCC2(C1=O)c1ccccc1CCc1ccccc12 [Spiro[cyclopentane-1,5′-[5H]dibenzo[a,d]cyclohepten]-2-one,10′,11′-dihydro-3-methylene-]
- Inhibition of mitochondrial respiration (basal, ADP-induced and uncoupled) [1]: did not inhibit
- Inhibition of swelling in brain mitochondria (MPTP [2]): inhibited
- Inhibition of Ca2+-induced depolarisation (MPTP [3]; 300 nM, 20 μM Ca2+, relieved by 50 μM Ub5): inhibited
- Number of Ca2+ additions necessary to induce complete depolarization (MPTP [3]; series of 5 μM Ca2+ additions, membrane potential monitored): increased
- Effect of unlabeled compound on labeling of the ~32 kDa band (VDAC1): inhibited
